From US20120010289A1, “METHOD FOR PLACENTAL EXFOLIATION USING OXO-ARACHIDONIC ACID OR THE LIKE” (Inc Admin Agcy Natl Agric & Food Res. Organization, priority 2007, published 2012)

Legend:
[1] = system: cultured fibroblasts derived from the placenta (MMP-producing cells); assay: Cell exfoliation assay to search for MMP activators; assay type: cell-based; conditions: fibroblasts from bovine fetal placenta, monolayer treated with cortisol, compound added; FIG. 2 and FIG. 3
Procedure: The in vitro pharmacological evaluation is exemplified by a method using cultured fibroblasts derived from the placenta (MMP-producing cells). First, the composition for placental exfoliation of the present invention is added to a culture medium of the concerned cultured fibroblasts. After the addition, the cells are cultured for a fixed period of time.
Therefore, cultured fibroblasts derived from the placenta (MMP-producing cells) were used to search for MMP activators.
Since in vivo MMP-2 is produced from fibroblasts, fibroblasts were prepared from bovine fetal placenta. A fixed amount of cells were seeded on the culture plate, and were treated with cortisol after the monolayer formation. Further, the MMP activator candidate compounds were added thereto.

pregnant Holstein cow = assay: Placental exfoliation by administration of 12-oxoarachidonic acid to a cow after prostaglandin-induced fetal delivery; assay type: in vivo
Procedure: The in vivo pharmacological evaluation is exemplified by a method using cows which have delivered fetuses by means of the single administration of a prostaglandin. First, the composition for placental exfoliation of the present invention is administered to cows after the fetal delivery.
In order to induce the fetal delivery, a formulation (10 ml) containing a naturally-occurring prostaglandin (50 mg) was intramuscularly injected into the hip of a pregnant Holstein cow (dairy cow) (body weight 779 kg) a week prior to the due date. Moreover, a cow after the third calving was again administered with the prostaglandin after 12 hours from the first injection thereof (evening on the first day).
The mother cow and the newborn calf were both healthy.
Next, after 4 hours from the fetal delivery, a saline solution (15 ml) containing 12-oxoarachidonic acid (1 mg) was intrajugularly injected into the mother cow which had delivered a fetus. After about 6 hours from the injection, the whole amount of the placenta was released from the mother cow. FIG. 4 presents photographs showing the manner of such parturition. […] In cases of the non-administration of 12-oxoarachidonic acid, the placenta was not released from the mother cow, and the placental retention occurred.

MMP = MMP activity in released placenta by gelatin zymography; assay type: in vivo, cow; conditions: PG-induction+oxo placenta compared with normal parturition and placental retention; FIG. 5
Procedure: In the method using gelatin zymography, first, the composition for MMP activation of the present invention is brought into contact with MMP-producing cells. After the incubation for a fixed time, the cells are lysed to make a protein solution, which is then subjected to an electrophoresis using a SDS polyacrylamide electrophoresis gel containing a gelatin (MMP substrate). After the migration, the temperature was kept for a fixed time to progress the enzyme reaction, followed by staining of undegraded gelatin remaining in the gel.
The MMP activity in released placenta was analyzed. The samples were as follows: a placenta released from a mother cow of normal parturition (without specific treatment) (expressed as “normal parturition” in FIG. 5); a placenta from a mother cow which was subjected to the fetal delivery induction with a prostaglandin but suffered from placental retention (expressed as “PG-induced parturition” in FIG. 5); a placenta released from a mother cow which was subjected to the fetal delivery induction with a prostaglandin and the subsequent placental release induction with a 12-oxoarachidonic acid (expressed as “PG-induction+oxo” in FIG. 5); and a placenta from a mother cow which had naturally-occurring placental retention (expressed as “placental retention cow” in FIG. 5).
The MMP activity was measured using gelatin zymography. […]

CCCCC/C=C\C/C=C\CCCCCCCC(=O)O [linoleic acid]
cell exfoliation activity (MMP activation ability) [1]: weak activity

CC/C=C\C/C=C\C/C=C\CCCCCCCC(=O)O [α-linolenic acid]
cell exfoliation activity (MMP activation ability) [1]: weak activity

CCCCC/C=C\C/C=C\C/C=C\CCCCCCC(=O)O [dihomo-γ-linolenic acid]
cell exfoliation activity (MMP activation ability) [1]: weak activity

CC/C=C/C/C=C/C/C=C/C/C=C/CCCCCCC(=O)O [ω-3-arachidonic acid]
cell exfoliation activity (MMP activation ability) [1]: weak activity

CCCCC/C=C\C[C@H](O)/C=C/C=C\C/C=C\CCCC(=O)O [12(S)-hydroxyarachidonic acid]
cell exfoliation activity (MMP activation ability) [1]: no cell exfoliation activities

CC/C=C\C/C=C\C/C=C\C/C=C\CCCCC(=O)O [stearidonic acid]
cell exfoliation activity (MMP activation ability) [1]: weak activity

CCCCC/C=C\C/C=C\C/C=C\CCCCC(=O)O [γ-linolenic acid]
cell exfoliation activity (MMP activation ability) [1]: medium activity

CCCCC/C=C\C[C@@H](/C=C/C=C\C/C=C\CCCC(=O)O)OO [12(S)-hydroperoxyarachidonic acid]
cell exfoliation activity (MMP activation ability) [1]: weak cell exfoliation activities

CCCCC/C=C\C[C@@H](O)/C=C/C=C\C/C=C\CCCC(=O)O [12(R)-hydroxyarachidonic acid]
cell exfoliation activity (MMP activation ability) [1]: no cell exfoliation activities

CCCCC/C=C\C/C=C\C/C=C\C/C=C\CCCC(=O)O [arachidonic acid]
cell exfoliation activity (MMP activation ability) [1]: confirmed to have a cell exfoliation activity

CCCCC/C=C\CC(=O)/C=C/C=C\C/C=C\CCCC(=O)O [12-oxoarachidonic acid]
time from injection to release of the whole amount of the placenta (pregnant Holstein cow; 1 mg in 15 ml saline, intrajugular, 4 hours after fetal delivery, Holstein cow 779 kg): about 6 hours
reproductive function of the postexperimental mother cow (pregnant Holstein cow; after 1 mg intrajugular 12-oxoarachidonic acid): reproductive function was not affected
MMP pattern (proMMP activity) of released placenta (MMP): MMP pattern very close to that of the placenta released from the cow of normal parturition
cell exfoliation activity (MMP activation ability) [1]: showed a cell exfoliation activity at a lower concentration than that of the arachidonic acid itself
